19 compounds from ChEMBL document CHEMBL1151073, “Substituted 1,3,5-triazines as cholesteryl ester transfer protein inhibitors” (Bioorg Med Chem Lett, 1996) can be followed below.

The target in test [1] is T1, Cholesteryl ester transfer protein (Homo sapiens, UniProt P11597).
T1 sequence (P11597 whole entry): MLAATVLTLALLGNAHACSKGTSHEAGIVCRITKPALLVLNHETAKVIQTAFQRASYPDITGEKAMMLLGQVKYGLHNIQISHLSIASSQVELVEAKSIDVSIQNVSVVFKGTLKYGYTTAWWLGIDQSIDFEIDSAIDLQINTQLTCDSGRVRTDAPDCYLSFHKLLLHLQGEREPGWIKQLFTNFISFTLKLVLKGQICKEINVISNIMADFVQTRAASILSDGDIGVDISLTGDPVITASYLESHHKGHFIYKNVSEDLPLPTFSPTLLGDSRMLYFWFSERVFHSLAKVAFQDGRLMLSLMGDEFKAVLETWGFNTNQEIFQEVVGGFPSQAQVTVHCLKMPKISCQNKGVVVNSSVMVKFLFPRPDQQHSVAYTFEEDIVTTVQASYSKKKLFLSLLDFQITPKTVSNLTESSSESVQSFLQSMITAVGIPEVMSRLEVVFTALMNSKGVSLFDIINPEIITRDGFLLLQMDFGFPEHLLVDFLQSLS
Nature of the test: Inhibition of Cholesteryl ester transfer protein.

Test [2] has as its target T2, Cholesteryl ester transfer protein (Homo sapiens) (UniProt P11597).
T2 sequence (whole entry): T1 sequence (P11597 whole entry)
Nature of the test: Compound was tested for inhibitory activity against Cholesteryl ester transfer protein at 50 uM.

For orientation: IC50 means the concentration needed to halve the response being measured. The low end stands for greater potency in that assay, the high end for weaker potency in that assay. Consider `COc1ccc(CCNc2nc(N3CCNCC3)nc(N3CCN(c4ccc(Cl)cc4)CC3)n2)cc1O`, for which the concentration for half-maximal inhibition (IC50) in test [1] came to 16 µM.
The term inhibition denotes how much of the control response was suppressed. `Oc1nc(N2CCNCC2)nc(N2CCN(c3ccc(Cl)cc3)CC2)n1` registered an inhibition in test [2] of 11%.
`Oc1ccc(CCNc2nc(N3CCNCC3)nc(N3CCN(c4ccc(Cl)cc4)CC3)n2)cc1O` yielded an IC50 in test [1] of 21 µM.
On the same count and under the same terms, under `Clc1ccc(N2CCN(c3nc(C#Cc4ccccc4)nc(N4CCNCC4)n3)CC2)cc1` stands 12 µM.
`CCCCOc1nc(N2CCNCC2)nc(N2CCN(c3ccc(Cl)cc3)CC2)n1` registered an inhibition in test [2] of 57%.
In test [1], `Clc1ccc(N2CCN(c3nc(Cc4ccc5ccccc5c4)nc(N4CCNCC4)n3)CC2)cc1` showed an IC50 of 5 µM.
Regarding `Clc1ccc(N2CCN(c3nc(NCc4ccccc4)nc(N4CCNCC4)n3)CC2)cc1`, in test [2], the inhibition came to 52%.
Take `Clc1ccc(N2CCN(c3nc(N4CCNCC4)nc(N4CCc5ccccc5C4)n3)CC2)cc1`: the IC50 in test [1] was 5 µM.
For the compound `Clc1ccc(N2CCN(c3nc(OCCc4ccccc4)nc(N4CCNCC4)n3)CC2)cc1`, the inhibition in test [2] was 66%.
For the compound `Clc1ccc(N2CCN(c3nc(N/N=C/c4ccccc4)nc(N4CCNCC4)n3)CC2)cc1`, the IC50 in test [1] is 10 µM.
As to `Clc1ccc(Cc2nc(N3CCNCC3)nc(N3CCN(c4ccc(Cl)cc4)CC3)n2)cc1`, the IC50 in test [1] worked out at 9 µM.
The same measure, in the same setting: under `CCCCc1nc(N2CCNCC2)nc(N2CCN(c3ccc(Cl)cc3)CC2)n1` stands 11 µM; under `Clc1ccc(N2CCN(c3nc(Cc4ccccc4)nc(N4CCNCC4)n3)CC2)cc1`, 9 µM; under `Clc1ccc(N2CCN(c3nc(NCCc4ccccc4)nc(N4CCNCC4)n3)CC2)cc1`, 45 µM.
Regarding `Clc1ccc(N2CCN(c3nc(Cl)nc(N4CCNCC4)n3)CC2)cc1`, the inhibition in test [2] turned out to be 37%.
`Clc1ccc(N2CCN(c3nc(-c4ccccc4)nc(N4CCNCC4)n3)CC2)cc1`: it took 11 µM to reach half-maximal inhibition in test [1] (IC50).
Still for that read-out and setting: next, `CN(CCc1ccccc1)c1nc(N2CCNCC2)nc(N2CCN(c3ccc(Cl)cc3)CC2)n1`: 6 µM.
In test [2], `Clc1ccc(N2CCN(c3ncnc(N4CCNCC4)n3)CC2)cc1` had an inhibition of 14%.
`C=Cc1nc(N2CCNCC2)nc(N2CCN(c3ccc(Cl)cc3)CC2)n1`: the inhibition in test [2] stood at 48%.
